These results are taken from patent publication US20240317735A1, “HYDROISOQUINOLINE OR HYDRONAPHTHYRIDINE COMPOUNDS FOR THE TREATMENT OF AUTOIMMUNE DISEASE” (Hoffmann-La Roche Inc., priority 2020, published 2024).

For this data set, the system named is Balb/c 3T3 mouse fibroblasts. The data set is described as follows: 3T3 in vitro phototoxicity assay (Neutral Red uptake). Type of data set: cell-based. The settings on record: for Phototoxicity factor: IC50 without vs with UV-A exposure, cut-off factor >5; for IC50: Mus musculus, BALB/c3T3, light or radiation study, 3T3 fibroblasts, approx. 5 J/cm^2 UVA, Neutral Red uptake. From the text:
Phototoxicity is defined as a toxic response that is elicited after the first exposure of the skin to certain chemicals and subsequent exposure to light, or that is induced similarly by skin irradiation after systemic administration of a chemical substance. The assay used in this study is designed to detect the phototoxic potential of a chemical by using a simple in vitro cytotoxicity assay with Balb/c 3T3 mouse fibroblasts. The principle of this test is a comparison of the cytotoxicity of a chemical when tested with and without exposure to a non-toxic dose of UVA-light. Cytotoxicity is expressed as a dose dependent reduction of the growth rate of cells as determined by uptake of the vital dye Neutral Red one day after treatment.
A small amount of substance was weighed and formulated freshly in DMSO just before the start of the exposure of the cells. This stock solution or appropriate dilutions with DMSO were added to the cell suspensions to obtain the required final concentrations. All solutions were generally prepared in Eppendorf caps and discarded after use.
• Chlorpromazine (HCL) (Sigma, Batch/Lot No.: 120M1328V), test concentration: 300 μg/mL, Solvent: PBS/3% DMSO
For this study the Neutral Red uptake (NRU) assay of Borenfreund and Puerner (Borenfreund, E, Puerner J A. Toxicity determined in vitro by morphological alterations and Neutral Red absorption. Toxicology Lett. 1985; 24:119-124) modified according to INVITTOX protocol No 78 (ERGATT/FRAME data bank of in vitro techniques in toxicology. INVITTOX PROTOCOL No 78. 3T3 NRU Phototoxicity Assay. March 1994) has been adapted to examine a possible phototoxic potential of the test item. This assay is based on the active uptake of the Neutral Red dye into the lysosomes of cultured murine fibroblasts. Because lysosomal membranes are known to be a site of action of many phototoxic compounds, this assay can provide a measure of potential for phototoxic injury.
A murine fibroblasts clone A 31 (ATCC no. CCL 163—passage No. 108) were cultured in 175 cm^2 tissue culture grade flasks, containing sDMEM (Dulbecco's […] Essential Medium, supplemented with 10% fetal calf serum, 2 mM L-glutamine, 100 units/ml Penicillin and 100 μg/ml streptomycin) at 37° C. in a humidified atmosphere of 6% CO2. Before cells approach confluence they were removed from flasks by trypsinisation. Prior to use in an assay, the cells were transferred to 96-well microtiter plates at a concentration of 1×10^4 cells/well in 100 μl volumes of sDMEM and allowed to attach for 24 h.
For incubation with murine fibroblasts, the test item was diluted in PBS/3% DMSO (detailed concentrations see in results).
Culture medium (Dulbecco's Modified Eagle Medium(DMEM), GlutaMAX (Gibco Ref 21885-025), 10% Fetal Bovine Serum (FBS) (Gibco Ref 10270-106), 1001U/ml Penicillin and 100 μg/mL Streptomycin (Gibco Ref 15140-122)) was removed from the wells and murine fibroblasts were washed with PBS. Afterwards 100 μL of PBS/3% DMSO containing the test item was added and target cells were incubated for 1 h at 37° C. with 6% CO2.
For each test item the microtiter plates were prepared according to Table 6. “UVA plates” were exposed to approx. 5 J/cm^2 UVA light, the “Dark plates” were kept in the dark and served as cytotoxicity control. Plates with chlorpromazine hydrochloride served as positive control. UV flux was measured with a UV-meter (Dr. Gröbel RM21).
Following UV irradiation, the test item was removed from the wells (one washing step with PBS) and replaced with sDMEM. Target cells were then incubated overnight at 37° C. in 6% CO2.
Each plate contained wells with cells and solvent but without test item which were either not incubated with Neutral Red solution (0% standard—S1) or were stained with Neutral Red (100% standard—S2) for calculation of the standard cell viability curve. Wells labeled with U01-U08 contained the different test item concentrations. […]

Molecules are shown by their SMILES. Where only a bound is given, the exact number is not on record here.

In turn, `CO[C@@H]1CN(c2ccc3c(c2)[C@@H](C)CN(c2ccnc4c2cnn4C)C3)C[C@H]1N` [Example 20, (3R,4R)-4-methoxy-1-[(4R)-4-methyl-2-(1-methylpyrazolo[3,4-b]pyridin-4-yl)-3,4-dihydro-1H-isoquinolin-6-yl]pyrrolidin-3-amine] displayed a Phototoxicity factor of 1 and an IC50 greater than 100 µg/mL.

`CO[C@@H]1CN(c2ccc3c(n2)[C@@H](C)CN(c2cc(C)nc4c2cnn4C)C3)C[C@H]1N` [Example 63, (3R,4R)-4-methoxy-1-[(8S)-6-(1,6-dimethylpyrazolo[3,4-b]pyridin-4-yl)-8-methyl-7,8-dihydro-5H-1,6-naphthyridin-2-yl]pyrrolidin-3-amine] gave a Phototoxicity factor of 1 and an IC50 greater than 100 µg/mL.

`Cn1ncc2c(N3CCc4cc(N5CCNCC5)ccc4C3)ccnc21` [Example 3, 2-(1-methylpyrazolo[3,4-b]pyridin-4-yl)-6-piperazin-1-yl-3,4-dihydro-1H-isoquinoline]: the Phototoxicity factor was 1 and the IC50 is greater than 100 µg/mL.
